Results reported in the NIST ThermoML archive (doi:10.1021/je020189p).
Values joined by “and” are separate entries in the source; they are usually repeats but may differ in a detail not shown here. Equal values may be shown once.

[Br][Gd]([Br])[Br] [gadolinium bromide (GdBr3)]
Settings	vapor or sublimation pressure
895 K, Crystal	3.31e-05 kPa
910 K, Crystal	4.17e-05 kPa
914 K, Crystal	6.31e-05 kPa
917 K, Crystal	7.76e-05 kPa
919 K, Crystal	8.91e-05 kPa
920 K, Crystal	7.76e-05 kPa
926 K, Crystal	0.000112 kPa
928 K, Crystal	7.76e-05 kPa
929 K, Crystal	0.000105 kPa
932 K, Crystal	0.000138 kPa
934 K, Crystal	0.000135 kPa
937 K, Crystal	0.000166 kPa
941 K, Crystal	0.00017 kPa
945 K, Crystal	0.000155 kPa and 0.000204 kPa
947 K, Crystal	0.000234 kPa
951 K, Crystal	0.000251 kPa and 0.000141 kPa
953 K, Crystal	0.000324 kPa
956 K, Crystal	0.000282 kPa and 0.000302 kPa
957 K, Crystal	0.000331 kPa and 0.000224 kPa
959 K, Crystal	0.000324 kPa
962 K, Crystal	0.000447 kPa
964 K, Crystal	0.000398 kPa
965 K, Crystal	0.000389 kPa
967 K, Crystal	0.000468 kPa
968 K, Crystal	0.000324 kPa and 0.000282 kPa
969 K, Crystal	0.000468 kPa and 0.000575 kPa
971 K, Crystal	0.00049 kPa
973 K, Crystal	0.00055 kPa
974 K, Crystal	0.00055 kPa
977 K, Crystal	0.000759 kPa
979 K, Crystal	0.000468 kPa and 0.000676 kPa and 0.000427 kPa
980 K, Crystal	0.000759 kPa
981 K, Crystal	0.000708 kPa
983 K, Crystal	0.000794 kPa
984 K, Crystal	0.000562 kPa
986 K, Crystal	0.000891 kPa
987 K, Crystal	0.001 kPa
988 K, Crystal	0.000933 kPa
989 K, Crystal	0.000708 kPa
990 K, Crystal	0.00107 kPa and 0.000617 kPa and 0.00115 kPa
993 K, Crystal	0.0011 kPa
994 K, Crystal	0.0011 kPa
996 K, Crystal	0.00123 kPa
997 K, Crystal	0.00145 kPa
999 K, Crystal	0.00102 kPa and 0.00155 kPa
1000 K, Crystal	0.00138 kPa
1001 K, Crystal	0.00155 kPa
1002 K, Crystal	0.000912 kPa
1003 K, Crystal	0.00148 kPa
1004 K, Crystal	0.00158 kPa
1006 K, Crystal	0.00162 kPa
1008 K, Crystal	0.00141 kPa and 0.002 kPa
1011 K, Crystal	0.00219 kPa and 0.002 kPa
1012 K, Crystal	0.00195 kPa
1014 K, Crystal	0.00245 kPa and 0.00219 kPa and 0.00135 kPa
1015 K, Crystal	0.0017 kPa and 0.00219 kPa
1018 K, Crystal	0.00191 kPa and 0.00275 kPa
1019 K, Crystal	0.00251 kPa
1020 K, Crystal	0.00288 kPa
1023 K, Crystal	0.00219 kPa and 0.00275 kPa
1025 K, Crystal	0.00302 kPa
1026 K, Crystal	0.002 kPa and 0.00347 kPa
1029 K, Crystal	0.00372 kPa and 0.00275 kPa
1030 K, Crystal	0.00363 kPa
1032 K, Crystal	0.00295 kPa and 0.00372 kPa
1034 K, Crystal	0.00398 kPa
1035 K, Crystal	0.00339 kPa
1036 K, Crystal	0.00468 kPa
1041 K, Crystal	0.00513 kPa and 0.00316 kPa
1043 K, Crystal	0.00513 kPa
1045 K, Crystal	0.00575 kPa
1049 K, Crystal	0.00661 kPa and 0.00417 kPa
1051 K, Crystal	0.00661 kPa
1057 K, Crystal	0.00776 kPa and 0.00832 kPa and 0.00525 kPa
1060 K, Liquid	0.00646 kPa
1067 K, Liquid	0.00933 kPa
1073 K, Liquid	0.00851 kPa
1074 K, Liquid	0.00741 kPa
1078 K, Liquid	0.012 kPa
1085 K, Liquid	0.0117 kPa
1087 K, Liquid	0.0145 kPa
1091 K, Liquid	0.0115 kPa
1096 K, Liquid	0.0158 kPa
1098 K, Liquid	0.0191 kPa
1099 K, Liquid	0.0138 kPa
1105 K, Liquid	0.0204 kPa
1108 K, Liquid	0.0178 kPa and 0.0234 kPa
1114 K, Liquid	0.024 kPa
1119 K, Liquid	0.0229 kPa and 0.0302 kPa
1123 K, Liquid	0.0282 kPa
1128 K, Liquid	0.0372 kPa
1130 K, Liquid	0.0302 kPa
1138 K, Liquid	0.0468 kPa
1140 K, Liquid	0.0427 kPa and 0.038 kPa
1148 K, Liquid	0.0513 kPa
1150 K, Liquid	0.049 kPa and 0.0617 kPa
1155 K, Liquid	0.0617 kPa
1159 K, Liquid	0.0589 kPa
1161 K, Liquid	0.0794 kPa
1168 K, Liquid	0.0708 kPa
1169 K, Liquid	0.0912 kPa
1179 K, Liquid	0.0912 kPa
